The target in one test is T1, consensus OR4K17 (Homo sapiens, UniProt Q8NGC6, A163V/E24Q/F120Y/F158L/G263S/I192T/I205M/I296T/I46V/K226R/L86V/P230S/S297A/V197I/V23I/V81M/V91T).
T1 construct: expressed in transfected cells; host or cells: HEK293
T1 sequence (Q8NGC6 with tags, fused parts or gaps V23I/E24Q/I46V/V81M/L86V/V91T/F120Y/F158L/A163V/I192T/V197I/I205M/K226R/P230S/G263S/I296T/S297A): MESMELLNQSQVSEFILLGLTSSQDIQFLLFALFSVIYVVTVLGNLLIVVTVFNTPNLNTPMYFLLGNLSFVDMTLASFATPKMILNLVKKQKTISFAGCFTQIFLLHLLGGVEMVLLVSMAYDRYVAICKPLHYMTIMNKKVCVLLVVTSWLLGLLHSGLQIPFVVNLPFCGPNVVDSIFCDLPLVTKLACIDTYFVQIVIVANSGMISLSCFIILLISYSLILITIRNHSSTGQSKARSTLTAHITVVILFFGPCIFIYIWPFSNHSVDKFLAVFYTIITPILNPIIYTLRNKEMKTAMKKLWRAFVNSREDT
Description: Luciferase assay, sulfur compounds. Type of test: cell-based.

For the next test, the target named is T2, consensus OR4E2 (Homo sapiens, UniProt Q8NGC2, A48T/F285L/G158V/H228Q/I116T/I142V/I197M/I47V/L183P/M219T/M25I/M36V/Q234R/R21W/S209T/S40L/S54R/T201S/T49I/T99A/V118M/V214L).
T2 construct: Flag (N); Rho tag (N); expressed in transfected cells; host or cells: HEK293
T2 sequence (Q8NGC2 1-312 R21W/M25I/M36V/S40L/I47V/A48T/T49I/S54R/T99A/I116T/V118M/I142V/G158V/L183P/I197M/T201S/S209T/V214L/M219T/H228Q/Q234R/F285L limits assumed): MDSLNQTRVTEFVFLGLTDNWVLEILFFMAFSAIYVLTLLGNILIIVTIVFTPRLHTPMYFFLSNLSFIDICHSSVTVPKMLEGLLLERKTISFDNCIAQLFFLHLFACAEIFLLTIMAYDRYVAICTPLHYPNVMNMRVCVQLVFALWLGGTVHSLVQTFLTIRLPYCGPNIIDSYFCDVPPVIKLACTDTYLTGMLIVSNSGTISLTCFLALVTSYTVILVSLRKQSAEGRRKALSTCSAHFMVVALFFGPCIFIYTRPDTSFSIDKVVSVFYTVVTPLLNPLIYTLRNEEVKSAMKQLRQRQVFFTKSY
Description: Luciferase assay, sulfur compounds. It counts as cell-based. The settings on record: for dose dependence of the response of consensus OR4E2 / response of consensus OR4E2: in the presence of a copper ion.

Another test has as its target T3, consensus OR2T29 (Homo sapiens, UniProt Q8NH02, A149V/A76M/C55S/F147L/I190K/I217V/K41M/L14S/L223S/L224F/L249M/L87M/M19V/M302T/M75V/R23S/R6W/S169T/S32C/S61T/T121A/T189M/V229I/V48I/V96I/W176R).
T3 construct: expressed in transfected cells; host or cells: HEK293
T3 sequence (Q8NH02 with tags, fused parts or gaps R6W/L14S/M19V/R23S/S32C/K41M/V48I/C55S/S61T/M75V/A76M/L87M/V96I/T121A/F147L/A149V/S169T/W176R/T189M/I190K/I217V/L223S/L224F/V229I/L249M/M302T): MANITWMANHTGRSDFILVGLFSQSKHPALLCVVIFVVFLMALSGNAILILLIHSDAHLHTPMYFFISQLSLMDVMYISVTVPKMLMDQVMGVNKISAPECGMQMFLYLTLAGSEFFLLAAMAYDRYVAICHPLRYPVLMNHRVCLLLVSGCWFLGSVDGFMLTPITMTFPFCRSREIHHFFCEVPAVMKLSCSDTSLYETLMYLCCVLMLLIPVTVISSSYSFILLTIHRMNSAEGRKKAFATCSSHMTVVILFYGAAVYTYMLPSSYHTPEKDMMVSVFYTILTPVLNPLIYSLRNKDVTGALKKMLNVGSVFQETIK
Description: Luciferase assay, sulfur compounds. Type of test: cell-based.

The next test addresses T4, OR2T11 (Homo sapiens, UniProt Q8NH01).
T4 sequence (Q8NH01 1-316): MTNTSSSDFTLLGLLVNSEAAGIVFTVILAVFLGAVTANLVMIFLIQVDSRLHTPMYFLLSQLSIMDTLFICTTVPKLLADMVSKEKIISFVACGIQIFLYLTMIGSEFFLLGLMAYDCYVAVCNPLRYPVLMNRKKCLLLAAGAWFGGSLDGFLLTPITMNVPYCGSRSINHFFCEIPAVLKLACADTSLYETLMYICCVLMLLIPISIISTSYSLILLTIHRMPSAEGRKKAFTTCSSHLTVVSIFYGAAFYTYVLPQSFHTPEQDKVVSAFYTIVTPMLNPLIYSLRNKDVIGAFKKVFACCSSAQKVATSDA
The settings on record: cited from earlier work.

[1] abbreviates: in the presence of a copper ion.
[2] abbreviates: Block E et al., Nat. Prod. Rep. 2017.

Read-outs that look alike come from different tables or passages of the source.

These results are taken from patent US20240279302A1, “OLFACTORY RECEPTOR EXPRESSING METHOD AND RESPONSE MEASUREMENT METHOD” (Kao Corporation, priority 2021, published 2024).

The term EC50 denotes the concentration needed to bring the measured effect to its halfway point. Consider `CSSC` [dimethyl disulfide], for which the response on consensus OR4K17 was half-maximal at 568 µM (EC50). Further, on consensus OR4K17 (setting [1]), the “dose dependence of the response of consensus OR4K17” value was “dose-dependent response” and the “response of consensus OR4K17” value was “responded”. At consensus OR4E2, the EC50 was found to be 397 µM, the “dose dependence of the response of consensus OR4E2” value was “dose-dependent response” and the “response of consensus OR4E2” value is “responded”. On consensus OR2T29 (setting [1]), the “response of consensus OR2T29” value is recorded as “responded”. Further, the “response of OR2T11” value on OR2T11 (setting [2]) is on record as “responds”.
As to `CSSSC` [dimethyl trisulfide], the EC50 on consensus OR4E2 (consensus OR4E2, 30 μM CuCl2, read-out: EC50(μM) with 30 μM CuCl2) amounted to 33 µM. For the same molecule, at consensus OR4E2, the “dose dependence of the response of consensus OR4E2” value was “dose-dependent response” and the “response of consensus OR4E2” value is listed as “responded”. Moreover, the “response of consensus OR2T29” value on consensus OR2T29 (setting [1]) was “responded”.
As for `CS` [methyl mercaptan], at consensus OR4K17 (setting [1]), the “response of consensus OR4K17” value is recorded as “responded”. On consensus OR4E2, the midpoint of the response, the EC50, lay at 250 µM; the “dose dependence of the response of consensus OR4E2” value is on record as “dose-dependent response”; the “response of consensus OR4E2” value is recorded as “responded”. Also, the EC50 on consensus OR2T29 amounted to 85 µM. For the same molecule, at consensus OR2T29 (setting [1]), the “dose dependence of the response of consensus OR2T29” value is “dose-dependent response” and the “response of consensus OR2T29” value is “responded”. Further, the “response of OR2T11” value at OR2T11 (setting [2]) was “responds”. For the same molecule, on OR2T11 (in the presence of a metal ion (JP-B-6122181)), the “response of OR2T11” value is “respond”.
